From patent US6117833A, “Bleaching compositions and method for bleaching substrates directly with air” (priority 1998, dated 2000)
Entries after “also recorded” stand apart in the source; their conditions may differ.

Legend:
[1] = Bleaching of tea-stained (BC-1) swatches by aldehyde + NHPI + air in Tergotometer (change in reflectance); conditions: aldehyde 15 mM, NHPI 1 mM, carbonate buffer, 30 min, 25° C., 460 nm, average of 2 values (6 for * = Exceptional Bleaching Aldehyde)
Method: A general outline of the essential steps in our experimental protocol are shown below.
a) Measure the initial reflectance of the swatches (Ri).
b) Saturate the wash solution with air.
c) Wash, rinse and dry the swatches.
d) Measure the final reflectance of the swatches (Rf).
All work was conducted in a Tergotometer with 2L stainless steel pots. The swatches were dried flat on a rack in a Kenmore dryer. […] The conditions utilized were as follows:
Initiator N-Hydroxyphthalimide (NHPI, 1 mM)
Aldehyde Aldehyde (15 mM)
Each Tergotometer Pot was filled with 1 liter of milli-Q-water containing carbonate buffer solution which was saturated for 15 minutes with air under agitation at 25° C. Tea stained (BC-1) swatches were washed for 30 minutes in the presence of aldehyde, air and NHPI at pH=8 (25° C.). The corresponding controls (buffer alone, NHPI alone and aldehyde alone) were performed simultaneously. All swatches were rinsed twice for 3 minutes with agitation at 25° C. and dried flat on a rack in a Kenmore with soft heat for 30 minutes.
To quantify the degree of stain removal, the reflectance of 4 stained swatches (4 per pot) were measured before and after washing using a Gardner reflectometer (Model #2000) set at 460*nm (*UV filter). The change in reflectance (ΔR) was determined by taking the difference of the swatch before and after each washing. The standard deviation (σ) and ΔΔRave was assigned to each experimental group.
Rl =Initial reflectance of stained swatch before washing.
Rf =Final reflectance of stained swatch after washing.
ΔRaldehyde system+control -ΔRcontrol =ΔΔR
ΔΔRave =Represents the average bleaching by the aldehyde system.
In general, the larger the ΔΔRave value, the greater the bleaching and cleaning.
(σ)=[Σ^n aj -aa)^2 /N-I]^0.5
Σ^n =sum (aj -aa)^2 per measurement
N=number of measurements=8

[2] = Bleaching on BC-1 by 4-Ethylbenzaldehyde with various initiators; design: key to Δ(ΔR), #1 / Δ(ΔR), #2 / Δ(ΔR), #3 / Δ(ΔR), Average / ΔΔRave: Δ(ΔR): reflectance change of stained cloth relative to buffer ΔR; conditions: for cleaning / bleaching (in words): initiator alone or 4-EBA alone; for Δ(ΔR), Average / Δ(ΔR), #1 / Δ(ΔR), #2 / Δ(ΔR), #3: 1 mM, σav = 0.4; for Δ(ΔR), Average: average of #1-#3; for Δ(ΔR), #1: run #1; for Δ(ΔR), #2: run #2; for Δ(ΔR), #3: run #3
Method: A series of experiments were conducted to evaluate the bleaching effectiveness of NHPI and related imides. Table IV reports the effectiveness on tea stained cloth swatches by various imide initiators in combination with 4-ethylbenzaldehyde.
Value for Carbonate Buffer = ΔR
Value for Initiator = Δ(ΔR)
Value for 4EBA + Initiator = Δ(ΔR)
* = Statistically significant bleaching over buffer alone (σav

SMILES	ΔΔRave on BC-1 at pH = 8 [1]	also measured
O=CCCCC=O	0.7	–
O=CC(O)CO (racemic) [DL-Glyceraldehyde]	-0.8	–
O=Cc1ccccc1S(=O)(=O)O [1-Formylbenzene-2-sulfonic acid]	0.5	–
O=Cc1c(F)c(F)cc(F)c1F [2,3,5,6-Tetrafluorobenzaldehyde]	0.3	–
Cc1cc(C)c(C=O)c(C)c1 [2,4,6-Trimethylbenzaldehyde]	6.3	–
Cc1ccc(C=O)c(C)c1 [2,4-Dimethylbenzaldehyde]	8.9	–
Cc1ccc(C)c(C=O)c1 [2,5-Dimethylbenzaldehyde]	8.8	–
O=Cc1c(Cl)cccc1Cl [2,6-Dichlorobenzaldehyde]	0.0	–
O=Cc1ccccc1Br [2-Bromobenzaldehyde]	2.1	–
O=Cc1ccccc1Cl [2-Chlorobenzaldehyde]	8.7	–
O=Cc1ccccc1F [2-Fluorobenzaldehyde]	1.0	–
O=Cc1ccco1 [2-Furfural]	0.2	–
O=Cc1ccccc1O [2-Hydroxybenzaldehyde]	0.4	–
O=Cc1ncc[nH]1 [2-Imidazolecarboxy Aldehyde]	-0.5	–
COc1ccccc1C=O [2-Methoxybenzaldehyde]	0.8	–
Cc1ccccc1C=O [2-Methylbenzaldehyde]	5.8	–
O=Cc1ccccc1[N+](=O)[O-] [2-Nitrobenzaldehyde]	0.1	–
CC(C=O)c1ccccc1 (stereo not drawn) [2-Phenylpropionaldehyde]	0.1	–
O=Cc1ccccc1C(F)(F)F [2-Trifluoromethylbenzaldehyde]	10.2	–
Cc1ccc(C=O)cc1C [3,4-Dimethylbenzaldehyde]	10.3	–
O=Cc1cc(Cl)cc(Cl)c1 [3,5-Dichlorobenzaldehyde]	-0.2	–
O=Cc1cc(F)cc(F)c1 [3,5-Difluorobenzaldehyde]	0.9	–
COc1cc(C=O)cc(OC)c1 [3,5-Dimethoxybenzaldehyde]	1.4	–
Cc1cc(C)cc(C=O)c1 [3,5-Dimethylbenzaldehyde]	9.3	–
O=Cc1cc([N+](=O)[O-])cc([N+](=O)[O-])c1 [3,5-Dinitrobenzaldehyde]	0.1	–

SMILES	ΔΔRave on BC-1 at pH = 8 [1]	also measured
Cc1ccc(Oc2cccc(C=O)c2)cc1 [3-(4-Methylphenoxy)benzaldehyde]	0.0	–
O=Cc1cccc(Br)c1 [3-Bromobenzaldehyde]	3.2	–
O=Cc1cccc(Cl)c1 [3-Chlorobenzaldehyde]	1.9	–
O=Cc1cccc(F)c1 [3-Fluorobenzaldehyde]	0.6	–
O=Cc1cccc(O)c1 [3-Hydroxybenzaldehyde]	0.8	–
COc1cccc(C=O)c1 [3-Methoxybenzaldehyde]	0.6	–
Cc1cccc(C=O)c1 [3-Methylbenzaldehyde]	10.0	–
O=Cc1cccc([N+](=O)[O-])c1 [3-Nitrobenzaldehyde]	1.2	–
O=Cc1cccc(Oc2ccccc2)c1 [3-Phenoxybenzaldehyde]	1.1	–
O=Cc1cccc(C(F)(F)F)c1 [3-Trifluoromethylbenzaldehyde]	3.1	–
O=Cc1ccc(Br)cc1 [4-Bromobenzaldehyde]	0.1	–
O=Cc1ccc(C(=O)O)cc1 [4-Carboxybenzaldehyde]	-0.1	–
O=Cc1ccc(Cl)cc1 [4-Chlorobenzaldehyde]	-0.1	–
CN(C)c1ccc(C=O)cc1 [4-Dimethylaminobenzaldehyde]	1.0	–
CCOc1ccc(C=O)cc1 [4-Ethoxybenzaldehyde]	0.4	–
CCc1ccc(C=O)cc1 [4-Ethylbenzaldehyde]	11.5	cleaning / bleaching (in words) [2]: small and inconsistent; also recorded: do not effectively clean stubborn tea stains
O=Cc1ccc(F)cc1 [4-Fluorobenzaldehyde]	1.6	–
O=CN1CCOCC1 [4-Formylmorpholine]	0.1	–
CCCCCCOc1ccc(C=O)cc1 [4-Hexyloxybenzaldehyde]	0.5	–
CC(C)(C)c1cc(C=O)cc(C(C)(C)C)c1O [4-Hydroxy-3,5-t-Butylbenzaldehyde]	0.0	–
O=Cc1ccc(O)cc1 [4-Hydroxybenzaldehyde]	0.7	–
CC(C)c1ccc(C=O)cc1 [4-Isopropylbenzaldehyde]	1.5	–
COc1ccc(C=O)cc1C [4-Methoxy-3-Methylbenzaldehyde]	0.4	–
COc1ccc(C=O)cc1 [4-Methoxybenzaldehyde]	1.2	–
Cc1ccc(C=O)cc1 [4-Methylbenzaldehyde]	8.3	–

SMILES	ΔΔRave on BC-1 at pH = 8 [1]	also measured
O=Cc1ccc([N+](=O)[O-])cc1 [4-Nitrobenzaldehyde]	0.3	–
CCCOc1ccc(C=O)cc1 [4-Propyoxybenzaldehyde]	0.2	–
O=Cc1ccc(C(F)(F)F)cc1 [4-Trifluoromethylbenzaldehyde]	0.3	–
CC(C)(C)c1ccc(C=O)cc1 [4-t-Butylbenzaldehyde]	1.3	–
O=Cc1ccc(S(=O)(=O)O)o1 [5-Formylfuran-2 sulfonic Acid]	-3.3	–
O=Cc1ccccc1 [Benzaldehyde]	1.5	–
C/C=C/C=O [Crotonaldehyde]	0.7	–
O=C[C@H](O)[C@@H](O)[C@H](O)[C@H](O)CO [D-Glucose]	0.6	–
O=CC=O [Glyoxal]	0.6	–
CC(C)C=O [Isobutyraldehyde]	0.4	–
O=C1C=CC(=O)N1O [NHMI]	–	Δ(ΔR), Average ([2]; initiator alone): 0.3; Δ(ΔR), #1 ([2]; initiator alone): 0.6; Δ(ΔR), #2 ([2]; initiator alone): 0.1; Δ(ΔR), #3 ([2]; initiator alone): 0.3
O=C1c2ccccc2C(=O)N1O [NHPI, N-hydroxyphthalimide]	–	ΔΔRave ([2]; initiator alone): -0.2; cleaning / bleaching (in words) [2]: did not provide a cleaning benefit; Δ(ΔR), Average ([2]; initiator alone): -0.3; Δ(ΔR), #1 ([2]; initiator alone): -0.1; Δ(ΔR), #2 ([2]; initiator alone): 0.1; Δ(ΔR), #3 ([2]; initiator alone): -0.7
O=C1CC(S(=O)(=O)O)C(=O)N1O (stereo not drawn) [NHSISA]	–	Δ(ΔR), Average ([2]; initiator alone): 0.2; Δ(ΔR), #1 ([2]; initiator alone): 0.2; Δ(ΔR), #2 ([2]; initiator alone): 0.5; Δ(ΔR), #3 ([2]; initiator alone): 0.0
O=C1CCC(=O)N1O [NHSI]	–	Δ(ΔR), Average ([2]; initiator alone): 0.0; Δ(ΔR), #1 ([2]; initiator alone): 0.0; Δ(ΔR), #2 ([2]; initiator alone): 0.0; Δ(ΔR), #3 ([2]; initiator alone): 0.0
O=Cc1ccccc1C=O [Phenyl-1,2-dicarboxyaldehyde]	1.1	–
O=Cc1cccc(C=O)c1 [Phenyl-1,3-dicarboxyaldehyde]	0.2	–
O=Cc1ccc(C=O)cc1 [Phenyl-1,4-dicarboxyaldehyde]	-1.1	–
CC1(C)CCCC(C)(C)N1[O] [TEMPO]	–	Δ(ΔR), Average ([2]; initiator alone): 1.8; Δ(ΔR), #1 ([2]; initiator alone): 1.8; Δ(ΔR), #2 ([2]; initiator alone): 1.8; Δ(ΔR), #3 ([2]; initiator alone): 1.9
CCCC=O [n-Butyraldehyde]	0.6	–
CCCCCCCCCC=O [n-Decylaldehyde]	0.6	–
CCCCCCCCCCCC=O [n-Dodecylaldehyde]	0.2	–
CCCCCCC=O [n-Heptyladehyde]	0.8	–
CCCCCCCCCCC=O [n-Undecylaldehyde]	0.0	–
O=C/C=C/c1ccccc1 [trans-Cinnamaldehyde]	1.2	–
CCCCCC(C=O)=Cc1ccccc1 [α-Amylcinnamaldehyde]	1.0	–
